# According to the METLIN SMRT retention time set (Domingo-Almenara et al. 2019):
# Test: gradient 5% acetonitrile 3 min, to 50% in 2 min, to 85% in 15 min, held 3 min, 100 µL/min
# Conditions: column: Zorbax Extend-C18 2.1 x 50 mm; eluents: water / acetonitrile, 0.1% formic acid
# How it was run: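 A Zorbax Extend-C18 column (2.1 × 50 mm, 1.8 μm) run at 100 μL/min with water and acetonitrile, both containing 0.1% formic acid, separated mixtures of ~100 pure standards. The HPLC was coupled to a quadrupole time-of-flight mass spectrometer operated in positive and negative ionization mode, with dead and dwell volumes of 40 μL and 900 μL. Each retention time was taken from a computationally picked adduct peak that was then manually inspected.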
row,Compound,RP-LC retention time [s]
1,CCCN1C(=O)COc2ccc(-c3noc(Cc4cccc(OC)c4)n3)cc21,1080
2,Cc1cc(OC(C)C(=O)N2CCC3(O)CCCCC3C2)c2c3c(c(=O)oc2c1)CCC3 (stereo not drawn),820
3,O=C(COc1cccc(Cl)c1)Nc1nc(-c2ccccc2)cs1,1110
4,Cn1nc(N2CCC(NC(=O)c3ccc[nH]c3=O)C2)ccc1=O (stereo not drawn),575
5,CCC1CCCCN1c1cc(C)nc2nc(-c3ccc(C)cc3)nn12 (stereo not drawn),1160
6,CCNC(=O)N1CC=C(C(=O)Nc2ccc(F)cc2)CC1,672
7,O=C(O)c1cc2c([nH]c1=O)CCCC2O (stereo not drawn),516
8,O=S(=O)(c1ccccc1)c1nnn2c1nc(NCc1ccc(F)cc1)c1sccc12,837
9,O=S(=O)(c1ccc(Br)cc1)N1CCc2nc(-c3ccccc3)ncc2C1,1120
10,Cc1cc2c(c(=O)n(-c3ccc(F)cc3)c(=O)n2CC(=O)Nc2ccc(Cl)cc2F)n1C,894
11,COc1ccc(N2CC(c3nc(-c4cccc(Cl)c4)no3)CC2=O)cc1OC (stereo not drawn),951
12,CCc1ccc(C2=C(C)C(N3CCCN(C(=O)C(C)(C)C)CC3)=NS2(=O)=O)cc1,901
13,CCOC(=O)c1cccc(Nc2c(C(=O)N3CCCCC3C)cnc3nc(C)ccc23)c1 (stereo not drawn),666
14,O=C(O)c1cccn2c(=O)c3ccccc3nc12,627
15,Cc1ccccc1Nc1c(-c2ccccc2O)nc2c(C)cccn12,701
16,COc1ccc(-c2nnc(-c3cccc(S(=O)(=O)N4CCCCCC4)c3)o2)cc1,1130
17,C=C[C@]12CN(C)C3C4COC(CC41)[C@]1(C(=O)Nc4ccccc41)[C@@H]32 (stereo partly drawn),551
18,CCNC(=O)C1=CCN(C(=O)c2cc(C)cc(C)c2)CC1,720
19,COc1cc(OC)c(NS(=O)(=O)c2ccc3c(c2)-c2oncc2CO3)cc1Cl,910
20,CCCOc1ccc(C2NC(=O)NC(C)=C2C(=O)OC2CCCC2)cc1OC (stereo not drawn),857
21,O=C(C1CCN(c2cnc(N3CCOCC3)nc2)CC1)N1CCCCCC1,684
22,CCC(Oc1ccc(=O)n(-c2ccc(F)cc2)n1)C(=O)NCCN1CCN(C)CC1 (stereo not drawn),585

row,Compound,RP-LC retention time [s]
1,CCNC(=O)C1CCCN(c2nc3ncn(CC(=O)Nc4ccc(C(C)C)cc4)c(=O)c3s2)C1 (stereo not drawn),759
2,Cc1ccc(CNS(=O)(=O)c2cc3c(s2)CCN(C(=O)C2CCC2)C3)cc1,943
3,Cc1[nH]c(C(=O)N2CCCC(C(=O)N3CCN(C4CCCCC4)CC3)C2)c(C)c1C(=O)OC(C)C (stereo not drawn),645
4,Cc1cccc(NC(=O)c2csc(-c3cn(C)c4ncccc34)n2)c1,1040
5,CCc1cc(N2CCN(C(=O)c3cc(OC)cc(OC)c3)CC2)nc2nncn12,601
6,Cc1oc2c(c1C(=O)NCC1CCN(Cc3ccc(Cl)cc3)CC1)C1=NCCN1C=N2,567
7,COc1ccccc1-c1cc2c(=O)n(Cc3nc(-c4cccc(OC)c4OC)oc3C)ccn2n1,1060
8,Cc1ccc(NS(=O)(=O)c2cc3n(c2)CCCN(C(C)C)C3=O)cc1,778
9,CCN1C(=O)c2ccccc2Oc2ccc(C(=O)NCc3ccccc3OC)cc21,917
10,COc1ccc(OC)c(NC(=O)C2CCN(S(=O)(=O)c3ccc4c(c3)NC(=O)C(C)O4)CC2)c1 (stereo not drawn),856
11,CCCN(CCC)CCNC(=O)C1CCCN(c2ncnc3c2nc2n3CCCCC2)C1 (stereo not drawn),599
12,CCc1ccc(C(=O)N2CCC3(C2)C(=O)N(C)c2ccc(OC)cc23)cc1 (stereo not drawn),840
13,CCOc1ccc(C(=O)N2CCCC2c2nc(-c3ccc(OC)c(OC)c3)no2)cc1OCC (stereo not drawn),916
14,N#C/C(=C\c1ccc(-c2cc(Cl)ccc2Cl)o1)C(=O)Nc1cccc2ncccc12,1110
15,CN(C)C(=O)c1cc2c(s1)CCC(C(=O)N1CCN(C3CCCC3)CC1)C2 (stereo not drawn),573
16,CCn1cc(CCN2CCC(C(=O)N(C)C)CC2)c2cccnc21,566
17,CCC(CC)C(=O)N1CCC(Oc2nccnc2N(C)C)C1 (stereo not drawn),749
18,COc1ccc(C2(C(=O)N3C[C@H]4C[C@H](C3)[C@H]3CCCC(=O)N3C4)CC2)cc1,679
19,Cn1c(CN2CCN(C(=O)Cc3ccc(Cl)cc3)CC2)nc2cc(C(=O)N3CCCC3)ccc21,646
20,O=C(NC1CCN(c2cc(-c3cccs3)[nH]n2)C1)c1ccccc1Cl (stereo not drawn),701
21,Cc1ccc(C)c(Nc2c(-c3cc(Br)ccc3O)nc3ncccn23)c1,1100

# Second part, the molecule after the results:
row,RP-LC retention time [s],Compound
1,678,Cn1nccc1C(=O)Nc1c(-c2ccccc2)nc2sc(N3CCCCC3)nn12
2,704,COc1cc(C)c(C)cc1S(=O)(=O)NCC1(CO)CC1
3,807,Cc1ccccc1S(=O)(=O)N1CCC(CCC(=O)O)CC1
4,512,CCS(=O)(=O)N1C[C@@H](COc2ccncc2)[C@H](c2ccccn2)C1
5,692,CC(C)NC(=O)c1ccc2c(c1)NC(=O)C1CCCCN21 (stereo not drawn)
6,710,O=C(NCCc1c[nH]c2ccccc12)C1CC(=O)N(c2n[nH]c3cccc(F)c23)C1 (stereo not drawn)
7,879,Cc1ccc(N2C(=O)N(CC(=O)N3CCC(C)CC3)C3CS(=O)(=O)CC32)cc1Cl (stereo not drawn)
8,576,CCCN1CCN(C(=O)c2nc3ccccn3c2-c2ccsc2)CC1
9,809,CCN(C(=O)C(=O)c1c(C)[nH]c2ccccc12)c1ccccc1
10,1250,O=C1CN(S(=O)(=O)c2cccc(C(F)(F)F)c2)CC2(CCCCC2)N1C1CCCC1
11,574,O=C(NCc1ccc(F)cc1)N1CCc2nc[nH]c2C1
12,984,CS(=O)(=O)N1CCCc2cc(C(=O)Nc3cccc(Br)c3)ccc21
13,710,Cc1nc2nc(-c3ccccc3)nn2c(Sc2ccccc2N)c1C
14,886,CCc1cccc(C)c1Nc1c(-c2ccc(F)cc2)nc2ncccn12
15,750,O=C(Nc1ccc2c(c1)OCCO2)C1CCCN(c2ncnc3c2nc2n3CCCCC2)C1 (stereo not drawn)
16,569,COCCN(CCNC(=O)C1Cn2cccc2C(=O)N1C)Cc1ccco1 (stereo not drawn)
17,866,CC(CC(=O)N1CCN(c2ccccc2)CC1)S(=O)(=O)c1ccc2c(c1)CCN2C(=O)C1CC1 (stereo not drawn)
18,741,O=C(Nc1ccc(Cl)cc1F)N1CCC(N2CC(F)(F)C[C@H]2COCC2CC2)CC1
19,957,c1ccc(-c2nnc(Cc3nc(-c4ccc5c(c4)OCO5)no3)o2)cc1
20,885,CC1=C(c2ccc(C)cc2)S(=O)(=O)N=C1N1CCCN(C(=O)c2ccc(C)cc2)CC1
21,578,O=C(c1cc2ccccc2o1)N1CCN(Cc2ccsc2)CC1
22,615,Cc1ccc(F)c2c(=O)c3c([nH]c12)CCN(CC(=O)Nc1ccc2c(c1)OCO2)C3
23,902,CCOc1ccccc1NC(=O)N1CCC2(CC1)N=C(c1cccc(F)c1)C(=O)N2

row,RP-LC retention time [s],Compound
1,984,CC(C)c1noc(-c2cc(=O)n(CC(=O)Nc3ccccc3F)c3ccccc23)n1
2,590,CC(C)Oc1ccccc1CN1CC(c2nc(-c3ccncc3)nn2C)C1
3,607,CCc1nnc(-c2coc(S(=O)(=O)N3CCC(N4CCCCC4)CC3)c2)o1
4,871,CCN1C(=O)c2cccnc2Sc2cc(NC(=O)CCc3ccccc3OC)ccc21
5,604,CCOc1cccc(C2CC(c3ccc(OC)c(OC)c3)=NC3(CCN(C(C)C)CC3)N2)c1O (stereo not drawn)
6,1020,CC(C)CCNC(=O)c1ccc(-c2nc3cccnc3n2C2CCCCC2)cc1
7,671,O=C(Cn1c(=O)oc2ccccc21)NCC1CCN(C(=O)c2ccccc2F)CC1
8,1050,CCCCN1C(=O)C(C)(C(=O)Nc2ccc(F)cc2F)Oc2cccnc21 (stereo not drawn)
9,774,COc1cccc(S(=O)(=O)N2CCC(c3noc(-c4ccccn4)n3)C2)c1 (stereo not drawn)
10,698,CCn1nc(C)c(CCNC(=O)CCCn2c3ccccc3c3cnn(C)c(=O)c32)c1C
11,835,Cn1cnc2c(C(=O)Nc3ccccc3)nn(-c3ccccc3)c2c1=O
12,570,O=C(NC1CCN(Cc2ccccc2)CC1)C1CCN(c2cnc3nccnc3c2)CC1
13,582,O=C(c1ccccn1)N1CC(n2cnnc2C2CCCO2)C1 (stereo not drawn)
14,680,Cc1nc(C)c(C(=O)N2CCCCCCNC(=O)[C@@H]3CCC[C@@H]32)s1
15,779,Cc1ccc(-c2nc3ccc(Cl)cn3c2Nc2ccc3c(c2)OCCO3)cc1
16,704,Cn1nccc1C(=O)N1CCC(NS(=O)(=O)c2ccc(Cl)cc2)CC1
17,722,Cc1cc(C)c2c(N3CCSCC3)nc(C(=O)N3CCN(c4ccccc4)CC3)nc2n1
18,848,Cc1cccc(-c2nc(N3CCCCCC3)c3ccccc3n2)c1
19,1040,O=C(C1=CN(c2ccc(F)c(F)c2)c2ccccc2S1(=O)=O)N1CCCCC1
20,701,COc1ccc(Br)cc1S(=O)(=O)Nc1cc(-c2cn3ccccc3n2)ccc1C
21,1170,COc1cccc(-c2csc(-c3nnn(-c4cccc(Cl)c4)c3N)n2)c1
22,929,COc1ccc(-c2cc3n(n2)CCCN(C(=O)NCc2ccccc2)C3)cc1OC
